Experiments:
[1] = Cytotoxicity against human HepG2(2.2.15) cells; format: cell-based
[2] = tested on: Hepatitis B virus; assay: Antiviral activity against Hepatitis B virus infected in human HepG2(2.2.15) cells assessed as reduction in hepatitis B surface antigen release; format: functional, organism-based
[3] = Selectivity index, ratio of CC50 for human HepG2(2.2.15) cells to IC50 for HBV by hepatitis B surface antigen release detection assay; format: functional
[4] = tested on: Hepatitis B virus; assay: Antiviral activity against Hepatitis B virus infected in human HepG2(2.2.15) cells assessed as reduction in hepatitis B e-antigen release; format: functional, organism-based
[5] = tested on: Hepatitis B virus; assay: Antiviral activity against Hepatitis B virus infected in human HepG2(2.2.15) cells assessed as reduction in viral DNA replication; format: functional, organism-based
[6] = Selectivity index, ratio of CC50 for human HepG2(2.2.15) cells to IC50 for HBV by viral DNA replication detection assay; format: functional
[7] = Selectivity index, ratio of CC50 for human HepG2(2.2.15) cells to IC50 for HBV by hepatitis B e-antigen release detection assay; format: functional

Row | Structure (SMILES) | IC50 [2] [µM] | IC50 [4] [µM] | IC50 [5] [µM] | CC50 [1] [µM] | Ratio CC50/IC50 [3] | Ratio CC50/IC50 [6] | Ratio CC50/IC50 [7]
1 | CCC(=O)O[C@H]1CC[C@]2(C)[C@H]3C(=O)C=C4[C@@H]5C[C@@](C)(C(=O)O)CC[C@]5(C)CC[C@@]4(C)[C@]3(C)CC[C@H]2C1(C)C [GLYCYRRHETINIC ACID PROPIONATE] | 1360 | 49.2 | 44.4 | 99.6 |  | 2.2 | 2
2 | CCCC(=O)O[C@H]1CC[C@]2(C)[C@H]3C(=O)C=C4[C@@H]5C[C@@](C)(C(=O)O)CC[C@]5(C)CC[C@@]4(C)[C@]3(C)CC[C@H]2C1(C)C | 370 | 37 | 48.2 | 119 |  | 2.5 | 3.2
3 | CC1(C)C(=O)CC[C@]2(C)[C@H]3C(=O)C=C4[C@@H]5C[C@@](C)(C(=O)O)CC[C@]5(C)CC[C@@]4(C)[C@]3(C)CC[C@@H]12 | 433 | > 467 | 189 | 467 | 1.1 | 2.5 | 
4 | CC1(C)[C@@H](O)CC[C@]2(C)[C@H]3C(=O)C=C4[C@@H]5C[C@@](C)(C(=O)O)CC[C@]5(C)CC[C@@]4(C)[C@]3(C)CC[C@@H]12 [ENOXOLONE] | 20.9 | 130 | 39.3 | 55.1 | 2.6 | 1.4 | 
5 | COc1cc(/C=C/C(=O)O[C@H]2CC[C@]3(C)[C@H]4CC=C5[C@@H]6C[C@@](C)(C(=O)OCC(N)=O)CC[C@]6(C)CC[C@@]5(C)[C@]4(C)CC[C@H]3C2(C)C)cc(OC)c1OC | 230 | 252 | > 120 | > 481 | >2.1 |  | >1.9
6 | COc1cc(/C=C/C(=O)O[C@H]2CC[C@]3(C)[C@H]4C(=O)C=C5[C@@H]6C[C@@](C)(C(=O)O)CC[C@]6(C)CC[C@@]5(C)[C@]4(C)CC[C@H]3C2(C)C)cc(OC)c1OC | > 1160 | 232 | 120 | > 1160 |  | >9.7 | > 5
7 | CC1(C)[C@@H](O)CC[C@]2(C)[C@H]3CC=C4[C@@H]5C[C@@](C)(C(=O)OCC(N)=O)CC[C@]5(C)CC[C@@]4(C)[C@]3(C)CC[C@@H]12 | 347 | > 1110 | 64.9 | 472 | 1.4 | 7.3 | 
8 | CC1(C)[C@@H](O)CC[C@]2(C)[C@H]3C(=O)C=C4[C@@H]5C[C@@](C)(C(=O)OC6CCC6)CC[C@]5(C)CC[C@@]4(C)[C@]3(C)CC[C@@H]12 | 810 | > 1810 | 89.5 | 742 |  | 8.3 | 
9 | CC1(C)[C@@H](O)CC[C@]2(C)[C@H]3CC=C4[C@@H]5C[C@@](C)(C(=O)O)CC[C@]5(C)CC[C@@]4(C)[C@]3(C)CC[C@@H]12 | 48.7 | > 1370 | 47 | 162 | 3.3 | 3.4 | 
10 | CC1(C)[C@@H](O)CC[C@]2(C)[C@H]3C(=O)C=C4[C@@H]5C[C@@](C)(C(=O)OCc6ccccc6C#N)CC[C@]5(C)CC[C@@]4(C)[C@]3(C)CC[C@@H]12 | > 1540 | > 1540 | 195 | > 1540 |  | >7.9 | 
11 | CC1(C)[C@@H](O)CC[C@]2(C)[C@H]3C(=O)C=C4[C@@H]5C[C@@](C)(C(=O)OCCO)CC[C@]5(C)CC[C@@]4(C)[C@]3(C)CC[C@@H]12 | 1010 | > 1920 | 298 | 380 |  | 1.3 | 

Now those with a lower IC50 [5], led by results:

Row | IC50 [2] [µM] | IC50 [4] [µM] | IC50 [5] [µM] | Structure (SMILES) | CC50 [1] [µM] | Ratio CC50/IC50 [3] | Ratio CC50/IC50 [6] | Ratio CC50/IC50 [7]
12 | 588 | > 1310 | 19.5 | CC1(C)[C@@H](O)CC[C@]2(C)[C@H]3C(=O)C=C4[C@@H]5C[C@@](C)(C(=O)OCc6cccc(F)c6)CC[C@]5(C)CC[C@@]4(C)[C@]3(C)CC[C@@H]12 | > 1310 | >2.2 | >67.2 | 
13 |  |  | 0.89 | C[C@H](Cn1cnc2c(N)ncnc21)OCP(=O)(O)O [TENOFOVIR ANHYDROUS] | > 1760 | >1.2 | >1973.4 | >1.4
14 | 606 | > 1330 | 8.9 | CC1(C)[C@@H](O)CC[C@]2(C)[C@H]3C(=O)C=C4[C@@H]5C[C@@](C)(C(=O)OCc6ccc([N+](=O)[O-])cc6)CC[C@]5(C)CC[C@@]4(C)[C@]3(C)CC[C@@H]12 | > 1330 | >2.2 | >149.2 | 
15 | 38.2 | 56.8 | 30.9 | CCOC(=O)CCCOC(=O)[C@@]1(C)CC[C@]2(C)CC[C@]3(C)C(=CC(=O)[C@@H]4[C@@]5(C)CC[C@H](O)C(C)(C)[C@@H]5CC[C@]43C)[C@@H]2C1 | 53.3 | 1.4 | 1.7 | 
16 | 36.3 | > 1480 | 9.08 | Cc1nc(COC(=O)[C@@]2(C)CC[C@]3(C)CC[C@]4(C)C(=CC(=O)[C@@H]5[C@@]6(C)CC[C@H](O)C(C)(C)[C@@H]6CC[C@]54C)[C@@H]3C2)cs1 | 37.2 | 1 | 4.1 | 
17 | 54.4 | > 1210 | 21.2 | CC1(C)[C@@H](O)CC[C@]2(C)[C@H]3C(=O)C=C4[C@@H]5C[C@@](C)(C(=O)OCc6ccc(S(C)(=O)=O)cc6)CC[C@]5(C)CC[C@@]4(C)[C@]3(C)CC[C@@H]12 | 1030 | 18.8 | 48.3 | 
18 | 145 | > 1390 | 13.2 | CC1(C)[C@@H](O)CC[C@]2(C)[C@H]3C(=O)C=C4[C@@H]5C[C@@](C)(C(=O)OCCCCCCCCO)CC[C@]5(C)CC[C@@]4(C)[C@]3(C)CC[C@@H]12 | 157 | 1.1 | 11.9 | 
19 | 927 | > 2060 | 23.7 | CC1(C)[C@@H](O)CC[C@]2(C)[C@H]3C(=O)C=C4[C@@H]5C[C@@](C)(C(=O)OCc6ccc(-n7cccn7)cc6)CC[C@]5(C)CC[C@@]4(C)[C@]3(C)CC[C@@H]12 | 1990 | 2.1 | 83.6 | 
20 | 40 | > 1120 | 28.8 | CC1(C)[C@@H](O)CC[C@]2(C)[C@H]3C(=O)C=C4[C@@H]5C[C@@](C)(C(=O)OCC(N)=O)CC[C@]5(C)CC[C@@]4(C)[C@]3(C)CC[C@@H]12 | 55.3 | 1.4 | 1.9 | 
21 | 43.3 | > 1810 | 18.4 | CC1(C)[C@@H](O)CC[C@]2(C)[C@H]3C[C@H]4O[C@]45[C@@H]4C[C@@](C)(C(=O)O)CC[C@]4(C)CC[C@@]5(C)[C@]3(C)CC[C@@H]12 | 35.7 |  | 1.9 | 
22 | 57.4 | > 1180 | 14.2 | CC1(C)[C@@H](O)CC[C@]2(C)[C@H]3C(=O)C=C4[C@@H]5C[C@@](C)(C(=O)OCCOc6ccccc6)CC[C@]5(C)CC[C@@]4(C)[C@]3(C)CC[C@@H]12 | 101 | 1.8 | 7.1 | 
23 | > 1390 | > 1390 | 28.6 | CC1(C)[C@@H](O)CC[C@]2(C)[C@H]3C(=O)C=C4[C@@H]5C[C@@](C)(C(=O)OCCCBr)CC[C@]5(C)CC[C@@]4(C)[C@]3(C)CC[C@@H]12 | 160 |  | 5.6 | 

From ChEMBL document CHEMBL2021793, “Synthesis, biological evaluation and structure-activity relationships of glycyrrhetinic acid derivatives as novel anti-hepatitis B virus agents” (Bioorg Med Chem Lett, 2012)
